Results published in the NIST ThermoML archive (doi:10.1016/j.jct.2010.05.009).
± gives the expanded uncertainty stated by the source.

Legend:
[1] = refractive index (Na D-line) (dimensionless); conditions: 101.33 kPa, Liquid, Standard Abbe refractometry
[2] = 101 kPa, Liquid; for viscosity: Capillary tube (Ostwald / Ubbelohde) method; for mass density: Vibrating tube method
[3] = xn = mol fraction of the nth substance listed; conditions: 101 kPa, Liquid; for viscosity: Capillary tube (Ostwald / Ubbelohde) method; for mass density: Vibrating tube method
[4] = refractive index (Na D-line) (dimensionless); xn = mol fraction of the nth substance listed; conditions: 101 kPa, Liquid, Standard Abbe refractometry

Compound | refractive index ([1]; 288.15 K) | refractive index ([1]; 298.15 K) | refractive index ([1]; 308.15 K) | viscosity ([2]; 288.15 K) | mass density ([2]; 288.15 K) | viscosity ([2]; 298.15 K) | mass density ([2]; 298.15 K) | viscosity ([2]; 308.15 K) | mass density ([2]; 308.15 K) | viscosity ([3]; 288.15 K, x1 = 1) | mass density ([3]; 288.15 K, x1 = 1) | viscosity ([3]; 298.15 K, x1 = 1) | mass density ([3]; 298.15 K, x1 = 1) | viscosity ([3]; 308.15 K, x1 = 1) | mass density ([3]; 308.15 K, x1 = 1) | refractive index ([4]; 288.15 K, x1 = 1) | refractive index ([4]; 298.15 K, x1 = 1) | refractive index ([4]; 308.15 K, x1 = 1) | other results
CCCN [propan-1-amine] | 1.3899 ± 0.0004 | 1.3844 ± 0.0004 | 1.3784 ± 0.0004 | 0.3851 ± 0.0034 mPa·s | 721.57 ± 0.25 kg/m3 | 0.3585 ± 0.0033 mPa·s | 711.08 ± 0.25 kg/m3 | 0.3222 ± 0.003 mPa·s | 700.4 ± 0.25 kg/m3 |  |  |  |  |  |  |  |  |  | 
C1CCOC1 [tetrahydrofuran] + CCCN |  |  |  |  |  |  |  |  |  | 0.4991 ± 0.0043 mPa·s | 892.92 ± 0.23 kg/m3 | 0.454 ± 0.004 mPa·s | 882.03 ± 0.24 kg/m3 | 0.4172 ± 0.0037 mPa·s | 871.01 ± 0.24 kg/m3 | 1.4086 ± 0.0004 | 1.4037 ± 0.0004 | 1.3987 ± 0.0004 | 
CCC(C)(C)O [2-methylbutan-2-ol] + CCCN |  |  |  |  |  |  |  |  |  | 5.867 ± 0.043 mPa·s | 814.01 ± 0.24 kg/m3 | 3.478 ± 0.027 mPa·s | 804.88 ± 0.24 kg/m3 | 2.504 ± 0.019 mPa·s | 795.52 ± 0.24 kg/m3 | 1.4062 ± 0.0004 | 1.4015 ± 0.0004 | 1.3968 ± 0.0004 | 
CCC(C)(C)O [2-methylbutan-2-ol] | 1.4062 ± 0.0004 | 1.4015 ± 0.0004 | 1.3968 ± 0.0004 | 5.867 ± 0.043 mPa·s | 814.01 ± 0.24 kg/m3 | 3.478 ± 0.027 mPa·s | 804.88 ± 0.24 kg/m3 | 2.504 ± 0.019 mPa·s | 795.52 ± 0.24 kg/m3 |  |  |  |  |  |  |  |  |  | 
C1CCOC1 [tetrahydrofuran] + CCC(C)(C)O |  |  |  |  |  |  |  |  |  |  |  |  |  |  |  |  |  |  | viscosity ([3]; 288.15 K, x2 = 0): 0.4991 ± 0.0043 mPa·s; mass density ([3]; 288.15 K, x2 = 0): 892.92 ± 0.23 kg/m3; viscosity ([3]; 298.15 K, x2 = 0): 0.454 ± 0.004 mPa·s; mass density ([3]; 298.15 K, x2 = 0): 882.03 ± 0.24 kg/m3; viscosity ([3]; 308.15 K, x2 = 0): 0.4172 ± 0.0037 mPa·s; mass density ([3]; 308.15 K, x2 = 0): 871.01 ± 0.24 kg/m3; refractive index ([4]; 288.15 K, x2 = 0): 1.4086 ± 0.0004; refractive index ([4]; 298.15 K, x2 = 0): 1.4037 ± 0.0004; refractive index ([4]; 308.15 K, x2 = 0): 1.3987 ± 0.0004
C1CCOC1 [tetrahydrofuran] | 1.4086 ± 0.0004 | 1.4037 ± 0.0004 | 1.3987 ± 0.0004 | 0.4991 ± 0.0043 mPa·s | 892.92 ± 0.23 kg/m3 | 0.454 ± 0.004 mPa·s | 882.03 ± 0.24 kg/m3 | 0.4172 ± 0.0037 mPa·s | 871.01 ± 0.24 kg/m3 |  |  |  |  |  |  |  |  |  | 
